Results published in ChEMBL document CHEMBL5465560, “Selectivity Literature for EUbOPEN Chemogenomic Library” (2024).
One block for each molecule: values may come before it.

Tests used:
[1] = molecular target: PAS domain-containing serine/threonine-protein kinase (Homo sapiens) (UniProt Q96RG2); test: Selectivity interaction (KinaseProfiler screening (Millipore)) EUB0000601a PASK; conditions: at 3 µM
[2] = molecular target: Protein arginine N-methyltransferase 7 (Homo sapiens, UniProt Q9NVM4); test: Selectivity interaction (Scintillation proximity assays) EUB0000230b PRMT7
[3] = molecular target: DNA (cytosine-5)-methyltransferase 3B (Homo sapiens) (UniProt Q9UBC3); conditions: at 1 µM
[4] = molecular target: Choline kinase alpha (Homo sapiens) (UniProt P35790); test: Selectivity interaction (Kinase panel (literature)) EUB0001199aCl CHKA; conditions: at 1 µM
[5] = molecular target: Homeodomain-interacting protein kinase 1 (Homo sapiens, UniProt Q86Z02); test: Selectivity interaction (Kinase panel (Z-LYTE Assay)) EUB0001632a HIPK1; conditions: at 10 µM
[6] = molecular target: Serine/threonine-protein kinase 32C (Homo sapiens) (UniProt Q86UX6); test: Selectivity interaction (LanthaScreen Eu Kinase Binding Assay) EUB0001632a STK32C; conditions: at 10 µM
[7] = molecular target: T1, Activin receptor type-1 (Homo sapiens) (UniProt Q04771); test: Selectivity interaction (KinomeScan (DiscoverX)) EUB0000595a ACVR1; conditions: at 10 µM
T1 sequence (whole entry): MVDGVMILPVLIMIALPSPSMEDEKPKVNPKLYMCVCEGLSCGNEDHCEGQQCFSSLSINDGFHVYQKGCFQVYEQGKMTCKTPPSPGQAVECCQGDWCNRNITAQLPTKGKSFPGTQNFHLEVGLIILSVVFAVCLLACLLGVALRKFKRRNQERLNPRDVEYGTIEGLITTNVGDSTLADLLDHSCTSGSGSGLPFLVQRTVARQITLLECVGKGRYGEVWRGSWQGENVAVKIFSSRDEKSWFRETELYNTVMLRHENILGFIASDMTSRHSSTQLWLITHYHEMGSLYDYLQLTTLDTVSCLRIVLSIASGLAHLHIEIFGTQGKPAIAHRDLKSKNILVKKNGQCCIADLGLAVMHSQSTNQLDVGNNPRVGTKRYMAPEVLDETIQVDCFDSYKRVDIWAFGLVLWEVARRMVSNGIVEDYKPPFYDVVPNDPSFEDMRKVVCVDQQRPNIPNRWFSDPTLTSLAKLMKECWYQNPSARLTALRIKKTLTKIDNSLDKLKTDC

[8] = molecular target: Cyclin-dependent kinase-like 1 (Homo sapiens) (UniProt Q00532); test: Selectivity interaction (KinomeScan (DiscoverX)) EUB0001079a CDKL1; conditions: at 1 µM
[9] = molecular target: T2, Serine/threonine-protein kinase LATS1 (Homo sapiens) (UniProt O95835); test: Selectivity interaction (KinomeScan (DiscoverX)) EUB0001079a LATS1; conditions: at 1 µM
T2 sequence (whole entry): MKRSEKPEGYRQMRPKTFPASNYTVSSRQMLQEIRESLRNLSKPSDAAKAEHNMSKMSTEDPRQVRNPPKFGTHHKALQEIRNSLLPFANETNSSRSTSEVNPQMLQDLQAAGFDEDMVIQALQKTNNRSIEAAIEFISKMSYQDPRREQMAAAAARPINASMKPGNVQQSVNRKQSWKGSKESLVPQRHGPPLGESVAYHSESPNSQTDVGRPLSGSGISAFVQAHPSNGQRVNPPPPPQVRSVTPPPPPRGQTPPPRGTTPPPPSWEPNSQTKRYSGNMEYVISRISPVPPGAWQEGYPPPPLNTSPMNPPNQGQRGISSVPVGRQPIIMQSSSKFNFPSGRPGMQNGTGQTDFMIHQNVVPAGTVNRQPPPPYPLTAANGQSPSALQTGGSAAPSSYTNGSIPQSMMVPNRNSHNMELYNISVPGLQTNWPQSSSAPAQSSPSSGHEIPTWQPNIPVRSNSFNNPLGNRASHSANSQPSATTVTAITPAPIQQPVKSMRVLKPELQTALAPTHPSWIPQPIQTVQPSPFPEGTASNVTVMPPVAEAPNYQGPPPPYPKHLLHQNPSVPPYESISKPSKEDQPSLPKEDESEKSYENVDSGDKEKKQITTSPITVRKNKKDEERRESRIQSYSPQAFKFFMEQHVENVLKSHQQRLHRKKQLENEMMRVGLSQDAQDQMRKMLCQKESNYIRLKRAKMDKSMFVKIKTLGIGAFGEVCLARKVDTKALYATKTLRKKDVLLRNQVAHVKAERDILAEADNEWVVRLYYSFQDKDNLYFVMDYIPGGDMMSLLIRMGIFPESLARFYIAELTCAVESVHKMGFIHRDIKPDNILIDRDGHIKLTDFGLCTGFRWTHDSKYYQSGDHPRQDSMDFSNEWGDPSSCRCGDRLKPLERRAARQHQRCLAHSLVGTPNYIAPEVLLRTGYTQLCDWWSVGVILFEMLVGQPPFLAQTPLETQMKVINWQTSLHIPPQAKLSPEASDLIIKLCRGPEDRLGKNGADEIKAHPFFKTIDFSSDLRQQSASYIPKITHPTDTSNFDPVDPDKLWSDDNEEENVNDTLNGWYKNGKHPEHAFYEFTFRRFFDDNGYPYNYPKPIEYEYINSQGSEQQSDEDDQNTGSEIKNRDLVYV

[10] = molecular target: Serine/threonine-protein kinase MRCK alpha (Homo sapiens) (UniProt Q5VT25); test: Selectivity interaction (KinomeScan (DiscoverX)) EUB0000045b CDC42BPA
[11] = molecular target: T3, 3-phosphoinositide-dependent protein kinase 1 (Homo sapiens) (UniProt O15530); test: Selectivity interaction (KinomeScan (DiscoverX)) EUB0000655a PDPK1; conditions: at 10 µM
T3 sequence (whole entry): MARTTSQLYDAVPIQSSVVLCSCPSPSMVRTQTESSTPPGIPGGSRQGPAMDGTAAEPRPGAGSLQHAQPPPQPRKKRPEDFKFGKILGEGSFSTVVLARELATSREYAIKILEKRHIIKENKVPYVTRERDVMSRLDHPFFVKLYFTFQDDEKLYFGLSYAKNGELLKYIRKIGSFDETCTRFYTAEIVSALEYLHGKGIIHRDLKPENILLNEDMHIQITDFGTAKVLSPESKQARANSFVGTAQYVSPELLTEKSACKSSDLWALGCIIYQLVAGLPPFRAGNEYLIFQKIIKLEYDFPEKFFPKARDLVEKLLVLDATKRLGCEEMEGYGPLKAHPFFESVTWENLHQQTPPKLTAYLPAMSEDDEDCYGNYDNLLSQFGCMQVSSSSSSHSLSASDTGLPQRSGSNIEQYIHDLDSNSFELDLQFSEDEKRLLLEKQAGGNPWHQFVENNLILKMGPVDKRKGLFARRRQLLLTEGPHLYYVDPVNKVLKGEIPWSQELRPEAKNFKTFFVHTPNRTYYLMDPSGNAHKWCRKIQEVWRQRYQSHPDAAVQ

[12] = molecular target: cAMP-dependent protein kinase catalytic subunit alpha (Homo sapiens, UniProt P17612); test: Selectivity interaction (SelectScreen profiling (Invitrogen)) EUB0000607a PRKACA; conditions: at 2 µM

Sequence of Serine/threonine-protein kinase MRCK alpha (Homo sapiens) (Q5VT25 whole entry): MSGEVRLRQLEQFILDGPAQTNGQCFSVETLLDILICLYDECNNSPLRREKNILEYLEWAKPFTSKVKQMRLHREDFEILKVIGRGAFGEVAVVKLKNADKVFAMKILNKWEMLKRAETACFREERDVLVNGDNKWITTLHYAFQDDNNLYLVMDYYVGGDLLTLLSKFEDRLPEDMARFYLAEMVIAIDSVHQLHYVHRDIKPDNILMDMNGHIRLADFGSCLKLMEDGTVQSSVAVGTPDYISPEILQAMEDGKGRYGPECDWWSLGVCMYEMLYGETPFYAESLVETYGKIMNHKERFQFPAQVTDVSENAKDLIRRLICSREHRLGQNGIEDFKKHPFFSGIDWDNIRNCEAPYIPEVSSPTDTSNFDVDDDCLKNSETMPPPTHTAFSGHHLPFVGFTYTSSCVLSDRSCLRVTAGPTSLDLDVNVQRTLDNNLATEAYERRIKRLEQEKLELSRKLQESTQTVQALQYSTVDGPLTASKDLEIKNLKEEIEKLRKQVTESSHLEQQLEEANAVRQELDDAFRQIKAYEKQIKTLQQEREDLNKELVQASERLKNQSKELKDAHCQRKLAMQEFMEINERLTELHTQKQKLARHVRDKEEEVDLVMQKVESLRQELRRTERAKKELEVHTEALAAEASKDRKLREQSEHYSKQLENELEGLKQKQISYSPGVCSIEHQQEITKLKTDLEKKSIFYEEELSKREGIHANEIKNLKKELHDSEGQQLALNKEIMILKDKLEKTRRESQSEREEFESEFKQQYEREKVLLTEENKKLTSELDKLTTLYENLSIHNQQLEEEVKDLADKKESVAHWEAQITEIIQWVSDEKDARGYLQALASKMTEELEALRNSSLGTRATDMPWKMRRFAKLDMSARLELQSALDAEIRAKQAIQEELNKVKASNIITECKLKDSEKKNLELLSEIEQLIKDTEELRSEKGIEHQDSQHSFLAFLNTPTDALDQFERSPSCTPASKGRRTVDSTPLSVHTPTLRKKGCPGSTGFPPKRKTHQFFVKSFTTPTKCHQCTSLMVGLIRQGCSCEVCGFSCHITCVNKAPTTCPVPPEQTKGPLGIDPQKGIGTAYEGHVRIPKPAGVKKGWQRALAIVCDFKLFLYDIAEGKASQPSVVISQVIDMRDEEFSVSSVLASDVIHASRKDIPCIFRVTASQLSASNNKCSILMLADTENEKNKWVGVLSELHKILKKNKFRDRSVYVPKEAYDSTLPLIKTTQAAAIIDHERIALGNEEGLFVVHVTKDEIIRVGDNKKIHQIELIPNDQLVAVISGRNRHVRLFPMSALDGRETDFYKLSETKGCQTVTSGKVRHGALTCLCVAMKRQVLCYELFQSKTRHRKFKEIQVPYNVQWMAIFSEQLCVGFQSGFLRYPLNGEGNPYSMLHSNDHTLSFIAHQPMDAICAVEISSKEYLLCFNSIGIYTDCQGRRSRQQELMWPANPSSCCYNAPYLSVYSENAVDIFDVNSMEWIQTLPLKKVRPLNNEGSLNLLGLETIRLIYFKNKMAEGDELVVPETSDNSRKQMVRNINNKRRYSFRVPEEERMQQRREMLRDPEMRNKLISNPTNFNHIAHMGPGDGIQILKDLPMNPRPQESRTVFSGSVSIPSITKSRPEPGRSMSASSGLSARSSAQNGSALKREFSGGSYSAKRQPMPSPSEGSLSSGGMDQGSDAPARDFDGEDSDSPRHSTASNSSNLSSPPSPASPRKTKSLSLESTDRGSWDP
Sequence of Cyclin-dependent kinase-like 1 (Homo sapiens) (Q00532 whole entry): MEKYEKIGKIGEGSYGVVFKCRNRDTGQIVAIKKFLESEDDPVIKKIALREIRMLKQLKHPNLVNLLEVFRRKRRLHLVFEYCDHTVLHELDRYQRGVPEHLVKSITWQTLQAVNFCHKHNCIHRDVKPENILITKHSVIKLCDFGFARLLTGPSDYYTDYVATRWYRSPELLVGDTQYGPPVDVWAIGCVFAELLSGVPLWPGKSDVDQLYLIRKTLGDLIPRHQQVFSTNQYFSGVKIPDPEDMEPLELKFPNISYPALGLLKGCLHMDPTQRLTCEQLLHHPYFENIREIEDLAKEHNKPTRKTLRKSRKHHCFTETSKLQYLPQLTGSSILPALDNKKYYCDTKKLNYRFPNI
Sequence of Homeodomain-interacting protein kinase 1 (Q86Z02 whole entry, looked up): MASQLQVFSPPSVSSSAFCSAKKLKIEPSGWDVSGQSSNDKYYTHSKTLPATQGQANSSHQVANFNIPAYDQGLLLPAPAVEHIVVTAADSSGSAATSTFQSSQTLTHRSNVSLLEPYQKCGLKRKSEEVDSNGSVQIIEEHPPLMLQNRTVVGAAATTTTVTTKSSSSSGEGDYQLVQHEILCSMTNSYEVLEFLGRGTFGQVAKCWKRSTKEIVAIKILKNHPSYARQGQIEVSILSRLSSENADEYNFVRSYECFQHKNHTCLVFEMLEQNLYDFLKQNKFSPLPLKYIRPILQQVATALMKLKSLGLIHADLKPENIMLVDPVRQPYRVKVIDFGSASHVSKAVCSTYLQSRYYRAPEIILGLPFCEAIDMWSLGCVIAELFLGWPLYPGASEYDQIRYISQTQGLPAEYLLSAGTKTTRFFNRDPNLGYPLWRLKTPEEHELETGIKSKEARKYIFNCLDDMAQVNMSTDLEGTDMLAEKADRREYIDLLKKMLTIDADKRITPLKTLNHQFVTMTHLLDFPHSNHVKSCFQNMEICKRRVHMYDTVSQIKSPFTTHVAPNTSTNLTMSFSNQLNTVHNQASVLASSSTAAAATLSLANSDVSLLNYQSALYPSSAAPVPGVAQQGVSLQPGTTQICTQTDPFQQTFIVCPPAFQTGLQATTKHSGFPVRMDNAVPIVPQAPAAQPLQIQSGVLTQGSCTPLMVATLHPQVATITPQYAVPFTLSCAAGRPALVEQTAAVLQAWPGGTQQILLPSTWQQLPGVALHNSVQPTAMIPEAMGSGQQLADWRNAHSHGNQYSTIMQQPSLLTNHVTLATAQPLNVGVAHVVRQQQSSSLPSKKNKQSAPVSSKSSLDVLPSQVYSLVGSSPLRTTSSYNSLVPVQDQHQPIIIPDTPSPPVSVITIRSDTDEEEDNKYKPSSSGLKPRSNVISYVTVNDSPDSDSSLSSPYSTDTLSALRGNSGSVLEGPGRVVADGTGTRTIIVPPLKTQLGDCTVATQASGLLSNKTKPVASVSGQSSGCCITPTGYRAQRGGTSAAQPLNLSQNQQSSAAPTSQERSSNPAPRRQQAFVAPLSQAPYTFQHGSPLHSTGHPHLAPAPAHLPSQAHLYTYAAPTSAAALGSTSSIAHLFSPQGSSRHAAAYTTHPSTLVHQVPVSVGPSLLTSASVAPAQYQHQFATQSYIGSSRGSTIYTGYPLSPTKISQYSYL
Sequence of Protein arginine N-methyltransferase 7 (Q9NVM4 whole entry): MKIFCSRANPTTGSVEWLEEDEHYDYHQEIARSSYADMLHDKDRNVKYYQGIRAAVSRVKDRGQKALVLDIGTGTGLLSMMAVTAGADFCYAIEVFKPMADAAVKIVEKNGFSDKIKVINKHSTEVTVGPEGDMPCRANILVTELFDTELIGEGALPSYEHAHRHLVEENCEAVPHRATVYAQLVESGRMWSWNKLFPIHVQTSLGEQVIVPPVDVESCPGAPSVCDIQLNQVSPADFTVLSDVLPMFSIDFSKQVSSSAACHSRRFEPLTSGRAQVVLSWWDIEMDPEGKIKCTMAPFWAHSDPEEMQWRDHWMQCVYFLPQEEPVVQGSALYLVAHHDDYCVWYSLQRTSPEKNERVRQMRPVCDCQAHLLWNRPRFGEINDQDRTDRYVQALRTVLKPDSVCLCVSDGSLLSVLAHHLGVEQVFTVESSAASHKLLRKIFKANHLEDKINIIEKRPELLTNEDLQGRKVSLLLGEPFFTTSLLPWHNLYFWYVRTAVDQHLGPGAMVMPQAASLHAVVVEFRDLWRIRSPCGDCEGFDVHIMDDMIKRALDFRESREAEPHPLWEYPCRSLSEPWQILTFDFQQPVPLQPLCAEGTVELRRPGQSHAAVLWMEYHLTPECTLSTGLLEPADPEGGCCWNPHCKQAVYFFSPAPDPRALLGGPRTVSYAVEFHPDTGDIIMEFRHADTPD
Sequence of Choline kinase alpha (Homo sapiens) (P35790 whole entry, looked up): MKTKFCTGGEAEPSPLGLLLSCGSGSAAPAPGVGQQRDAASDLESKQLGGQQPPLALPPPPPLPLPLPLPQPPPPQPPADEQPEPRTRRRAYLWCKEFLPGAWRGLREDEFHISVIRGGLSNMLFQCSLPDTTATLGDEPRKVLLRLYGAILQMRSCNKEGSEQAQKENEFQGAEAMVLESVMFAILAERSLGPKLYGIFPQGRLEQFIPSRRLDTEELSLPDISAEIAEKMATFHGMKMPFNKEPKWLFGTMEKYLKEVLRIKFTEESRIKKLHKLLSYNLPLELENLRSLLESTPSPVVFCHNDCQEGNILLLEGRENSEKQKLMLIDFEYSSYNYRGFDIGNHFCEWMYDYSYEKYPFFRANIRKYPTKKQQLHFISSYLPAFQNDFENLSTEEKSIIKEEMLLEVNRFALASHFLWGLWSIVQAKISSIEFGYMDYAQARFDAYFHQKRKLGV
Sequence of Serine/threonine-protein kinase 32C (Homo sapiens) (Q86UX6 whole entry): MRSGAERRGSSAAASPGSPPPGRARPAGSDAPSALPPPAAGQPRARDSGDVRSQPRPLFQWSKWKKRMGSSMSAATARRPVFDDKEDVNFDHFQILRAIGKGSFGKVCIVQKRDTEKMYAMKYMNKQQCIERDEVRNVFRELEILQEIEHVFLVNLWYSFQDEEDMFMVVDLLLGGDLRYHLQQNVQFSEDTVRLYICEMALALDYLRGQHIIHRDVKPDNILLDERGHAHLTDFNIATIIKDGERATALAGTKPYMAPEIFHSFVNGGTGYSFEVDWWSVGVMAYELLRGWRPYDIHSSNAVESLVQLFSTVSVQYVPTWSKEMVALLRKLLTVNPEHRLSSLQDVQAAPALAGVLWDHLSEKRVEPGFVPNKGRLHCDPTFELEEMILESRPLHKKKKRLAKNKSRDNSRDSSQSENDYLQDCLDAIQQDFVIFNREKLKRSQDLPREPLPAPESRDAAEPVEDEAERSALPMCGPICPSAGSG

% of inhibition [1]: 65%
Structure (SMILES): CCc1cc(Nc2nccc(-c3c(-c4ccc(OC)c(C(=O)Nc5c(F)cccc5F)c4)nc4ccccn34)n2)c(OC)cc1N1CCC(N2CCN(S(C)(=O)=O)CC2)CC1

IC50 [2]: > 10 µM | % activity [3]: > 85%
Structure (SMILES): CNCCN1CCC(c2cc(CN(C)C(=O)c3cccc(Oc4ccccc4)c3)ccn2)CC1

% of inhibition [4]: -3%
Structure (SMILES): CN1Cc2nccc(-c3cn(C)nc3-c3ccc(F)cc3)c2C1=O

% of control [5]: -0.292% | % of inhibition [6]: -34.6%
Structure (SMILES): Cn1cc(-n2cnc3c(NCc4nc5cc(Cl)c(Cl)cc5[nH]4)nc(N4CCOCC4)nc32)cn1

Structure (SMILES): COCC(=O)NC/C=C/c1ccc2ncnc(Nc3ccc(Oc4ccc(C)nc4)c(C)c3)c2c1 [CP-724714]
% of control [7]: 90%

Structure (SMILES): Nc1cnc(N2CCc3cc(S(=O)(=O)Nc4c(F)cc(Cl)cc4F)cc(N4CCCC4=O)c32)nc1 [TP-020n]
% of control [8]: 85% | % of control [9]: 100%

Structure (SMILES): C=CC(=O)Nc1cc(-n2c(=O)ccc3cnc4ccc(-c5ccc(NS(C)(=O)=O)cc5)cc4c32)ccc1C
% of control ([10]; at 1 µM): 100% | % of control ([10]; at 10 µM): 96%

Structure (SMILES): CN(C)CCOc1ccc(-c2nc(-c3ccncc3)c(-c3ccc4c(c3)CC/C4=N\O)[nH]2)cc1
% of control [11]: 88%

Structure (SMILES): CNC(=O)Nc1ccc(-c2nc(N3CC4CCC(C3)O4)c3cnn(C4CCC5(CC4)OCCO5)c3n2)cc1
% of inhibition [12]: -3%
